Starred links: 1 amine or outer side, 2 acyl side, 3 side chain; linkers in the order of their positions; H or OH if unused. Positions of bridges follow the written chain, without caps; N, C: chain ends. Non-standard residues stand in square brackets, D forms with d. Residues, ends and D or L forms follow the SMILES beside them. Triazole bridges read from a SMILES are 1,4-linked. *: point of attachment. DOTA = O=C(O)CN1CCN(CC(=O)O)CCN(CC(=O)*)CCN(CC(=O)O)CC1; Pteroyl = Nc1nc2ncc(CNc3ccc(C(=O)*)cc3)nc2c(=O)[nH]1; Biotin = O=C1N[C@H]2[C@H](CS[C@H]2CCCCC(=O)*)N1; Lys(N3) = [N-]=[N+]=NCCCC[C@H](N)C(=O)O; γGlu = O=C(O)[C@H](CCC(=O)[*:2])N[*:1]; AEEEA = NCCOCCOCCOCC(=O)O; Pra = C#CC[C@H](N)C(=O)O
Legend:
in vivo = settings: female, NSG, mouse, iv, total radioactivity
Procedure: (§1) Water and food were provided ad libitum. […] Tumor growth was monitored by caliper measurements.
CT scans were acquired for anatomical reference. Imaging was performed on a GENISYS^8 microPET/CT small animal scanner.
NSG mice were engrafted with OVCAR3 cells subcutaneously. […] Absorption of the radiotracer by highly perfused organs including the lungs indicate systemic circulation of the compound. Compound clearance is driven at the very early timepoints by a combination of hepatic and renal excretion. Over time, clearance is exclusively renal with retention of the compound in the tumor, and kidney.

[1] = system: OVCAR3 FOLR1+ cells (PC-3 FOLR1− cells as negative line); test: Flow cytometry binding to FOLR1 (+) and FOLR1 (−) cell lines; format: cell-based, human; settings: for binding selectivity for FOLR1 (+) cells over FOLR1 (−) cells: OVCAR3 vs PC-3, flow cytometry
Procedure: Both the kyeet (SEQ ID NO:9) and hshta (SEQ ID NO:6)-derived biligands were tested by flow cytometry for binding to FOLR1 (+) and FOLR1 (−) cell lines (FIGS. 6 and 7). The human ovarian adenocarcinoma-derived cell line OVCAR3 has robust FOLR1 expression and was selected as the FOLR1 (+) cell line. The human prostate adenocarcinoma-derived cell line PC-3 was selected as a FOLR1 (−) cell line.

FOLR1 [2] = molecular target: T1, FOLR1 (Homo sapiens, UniProt P15328); test: ELISA assay of FOLR1 binding; settings: for EC50: read-out: EC50 (ELISA, FOLR1)
Excerpt: FIG. 5 is a diagram of ELISA assay of FOLR1 binding of heterobiligands.

[3] = system: OVCAR3 (FOLR1+) tumor bearing NSG mice; settings: mouse, in vivo
Procedure: Female, 7-week-old NSG mice were housed under pathogen-free conditions. Water and food were provided ad libitum. To create mice with FOLR1+ ovarian xenograft tumors, mice were injected subcutaneously with OVCAR3 cells (1×10^7 cells per mouse) resuspended in 50% Matrigel in PBS into the shoulder region. Tumor growth was monitored by caliper measurements. OVCAR3 is a human ovarian adenocarcinoma known to over-express FOLR1.
^68Ga PET imaging was used to study in vivo biodistribution of heterobiligands in non-tumor bearing (healthy) mice and OVCAR3 tumor bearing mice. 100-200 μCi of [^68Ga]DOTA-labeled heterobiligand was administered intravenously (i.v.) via the tail vein of each mouse. […]
Evaluation of a folate-hshta (SEQ ID NO:6) Nterm heterobiligand bearing both an albumin binder and DOTA chelator in PET was a priority, given that DOTA can accommodate both ^68Ga for imaging and ^177Lu for radiotherapy. […] The time-course biodistribution of ^68Ga-labeled folate-hshta-PEG3-Lys(MPBA)-Lys(DOTA) (SEQ ID NO:6) (compound #2809) was calculated to quantify the uptake in major organs including the tumor (FIG. 17). […] Larger tumors (490 mm^3) were also evaluated with the ^68Ga-chelated PET probe.
Biodistribution was initially evaluated by PET imaging, as the time frame for a significant portion of clearance is roughly similar to the time frame of PET imaging experiments. […]

OVCAR3 xenograft [4] = test: 177Lu FOLR1 radioligand therapy of OVCAR3 xenografts; format: in vivo, mouse
[5] = Maximum tolerated dose (MTD) tolerability study
Procedure: In order to establish a maximum tolerated dose (MTD), a tolerability study was undertaken testing increasing amounts of the 177-Lu heterobiligand 7327 (folate-hshta-Gly-Phe-Lys(DOTA)). Animals were monitored for signs of toxicity and weighed twice weekly. […] The second and third doses were administered 21 days following the previous dose.
Efforts were undertaken to evaluate 177-Lu 6305 (folate-hshta-Lys(MPBA)-Gly-Phe-Lys(DOTA)), a compound with a brush border cleavable linker in addition to an albumin binder. […] Two separate MTD experiments were undertaken. […] A second experiment interrogated lower doses.
In order to establish a MTD, dose range finding studies were undertaken testing increasing amounts of Indi ^177Lu-7327 in healthy, non-tumor bearing female NSG mice using IV administration (FIGS. 34 and 35). Mouse body weight and behavior were monitored. […] The second and third doses were administered 21 days following the previous dose.

OVCAR3 xenograft [6] = test: 177Lu FOLR1 radioligand therapy of OVCAR3 xenografts; format: in vivo, mouse; remark: listed apart in the source
Procedure: as §1
OVCAR3 tumor bearing mice were used to study FOLR1-directed radioligand therapy (RLT) for treatment of ovarian cancer. Animals were administered a single dose of heterobiligand (vehicle control) or 111, 37, 18.5, 9.25, or 3.7 MBq [^177Lu]DOTA-labeled heterobiligand. Mice received the dose intravenously (i.v.) via the tail vein. To monitor the effect of the RLT, tumor size measurements were taken twice weekly and body weights were measured.
Single dose treatments at 18.5 MBq/nmol specific activity. OVCAR3 mouse model was used. 10^7 cell tumors were implanted in the mice one month before administration of ^177Lu-#6305. Five mice each were administered Cold #6305, 9.25 MBq Lu177-#6305, and 14.8 MBq Lu177-#6305, and two mice were administered 29.6 MBq Lu177-#6305. Tumor growth and body weight were then monitored.
Female NSG mice were implanted subcutaneously with OVCAR3 cells. Once tumors reached volumes of 200 mm^3, the animals were treated with 177-Lu 7327. Three treatment arms of 9.25 MBq, 14.8 MBq, and 29.6 MBq were studied.

FOLR1 [7] = molecular target: T1, FOLR1; test: Folic acid competition ELISA; format: binding
Procedure: A competition experiment was conducted to further understand the binding kinetics of the lead heterobiligand (folate-hshta (SEQ ID NO:6) Nterm heterobiligand).

T1 sequence (P15328 25-234): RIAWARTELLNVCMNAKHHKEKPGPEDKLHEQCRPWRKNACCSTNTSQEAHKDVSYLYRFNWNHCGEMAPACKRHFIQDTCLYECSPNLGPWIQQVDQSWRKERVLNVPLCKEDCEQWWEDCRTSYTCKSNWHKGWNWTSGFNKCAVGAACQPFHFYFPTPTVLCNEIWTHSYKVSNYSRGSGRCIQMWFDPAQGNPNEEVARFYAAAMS

Work on `C[C@H](O)[C@H]1NC(=O)[C@@H](Cc2cnc[nH]2)NC(=O)[C@@H](CO)NC(=O)[C@@H](Cc2cnc[nH]2)NC(=O)[C@@H](NC(=O)CC[C@H](NC(=O)c2ccc(NCc3cnc4nc(N)[nH]c(=O)c4n3)cc2)C(=O)O)Cc2cn(nn2)CCCC[C@@H](C(=O)NCCOCCOCCOCC(=O)N[C@@H](CCCCNC(=O)CO/N=C/c2ccc([18F])cc2)C(N)=O)NC(=O)[C@@H](C)NC1=O` yielded a tissue uptake per volume at 4 h (in vivo; accumulation in the tumor) of roughly 4 %ID/mL and a tissue uptake per volume at 4 h (in vivo; radiotracer accumulation in the tumor) of 3.5 to 5.5 %ID/mL.

With `C[C@H](O)[C@H]1NC(=O)[C@@H](Cc2ccc(O)cc2)NC(=O)[C@@H](CCCNC(=N)N)NC(=O)[C@@H](CCC(=O)O)NC(=O)[C@@H](CC(=O)O)NC(=O)[C@@H](NC(=O)[C@H](Cc2cn(CCOCCOCCOCCNC(=O)CC[C@H](NC(=O)c3ccc(NCc4cnc5nc(N)[nH]c(=O)c5n4)cc3)C(=O)O)nn2)NC(=O)CCOCCOCCOCCOCCOCCOCCOCCOCCOCCOCCNC(=O)CCOCCOCCOCCOCCOCCOCCOCCOCCOCCOCCNC(=O)CCCC[C@@H]2SC[C@@H]3NC(=O)N[C@@H]32)Cc2cn(nn2)CCCC[C@@H](C(N)=O)NC1=O` [Folate-deryt] the “binding selectivity for FOLR1 (+) cells over FOLR1 (−) cells” value (“binding selectivity for FOLR1 … (−) cells” for short) [1] was “excellent selectivity” and the EC50 (FOLR1 [2]) was 280 pM.

With `C[C@H](O)[C@H]1NC(=O)[C@@H](Cc2cnc[nH]2)NC(=O)[C@@H](CO)NC(=O)[C@@H](Cc2cnc[nH]2)NC(=O)[C@@H](NC(=O)CC[C@H](NC(=O)c2ccc(NCc3cnc4nc(N)[nH]c(=O)c4n3)cc2)C(=O)O)Cc2cn(nn2)CCCC[C@@H](C(=O)NCC(=O)N[C@@H](Cc2ccccc2)C(=O)N[C@@H](CCCCNC(=O)CN2CCN(CC(=O)O)CCN(CC(=O)O)CCN(CC(=O)O)CC2)C(=O)O)NC(=O)[C@@H](C)NC1=O` [Indi ^68Ga-7327, metal not drawn] ({Pteroyl-γGlu}-[Pra][dH][dS][dH][dT][dA][Lys(N3)]GFK(DOTA)-OH; triazole 1-7) the “kidney uptake (PET)” value [3] was “significant reduction in kidney uptake”.

With `C[C@H](O)[C@H]1NC(=O)[C@@H](Cc2c[nH]cn2)NC(=O)[C@@H](CO)NC(=O)[C@@H](Cc2c[nH]cn2)NC(=O)[C@@H](NC(=O)[C@H](Cc2cn(CCOCCOCCOCCNC(=O)CC[C@H](NC(=O)c3ccc(NCc4cnc5nc(N)[nH]c(=O)c5n4)cc3)C(=O)O)nn2)NC(=O)CCOCCOCCOCCOCCOCCOCCOCCOCCOCCOCCNC(=O)CCOCCOCCOCCOCCOCCOCCOCCOCCOCCOCCNC(=O)CCCC[C@@H]2SC[C@@H]3NC(=O)N[C@@H]32)Cc2cn(nn2)CCCC[C@@H](C(N)=O)NC(=O)[C@@H](C)NC1=O` [Tz heterobiligand] the “binding selectivity for FOLR1 … (−) cells” value [1] was “high selectivity” and the EC50 (FOLR1 [2]) was 107 pM.

For `C[C@H](O)[C@H]1NC(=O)[C@@H](CCC(=O)O)NC(=O)[C@@H](CCC(=O)O)NC(=O)[C@@H](Cc2ccc(O)cc2)NC(=O)[C@@H](CCCCN)NC(=O)[C@@H](NC(=O)[C@H](Cc2cn(CCOCCOCCOCCNC(=O)CC[C@H](NC(=O)c3ccc(NCc4cnc5nc(N)[nH]c(=O)c5n4)cc3)C(=O)O)nn2)NC(=O)CCOCCOCCOCCOCCOCCOCCOCCOCCOCCOCCNC(=O)CCOCCOCCOCCOCCOCCOCCOCCOCCOCCOCCNC(=O)CCCC[C@@H]2SC[C@@H]3NC(=O)N[C@@H]32)Cc2cn(nn2)CCCC[C@@H](C(N)=O)NC1=O` [folate-kyeet heterobiligand], the “binding selectivity for FOLR1 (+) cells” value ([1]; 40 nM of the test article) was “Virtually complete selectivity”, the “binding selectivity for FOLR1 … (−) cells” value [1] was “high selectivity” and the EC50 (FOLR1 [2]) was 149 pM.

In the case of `C[C@H](O)[C@H]1NC(=O)[C@@H](Cc2c[nH]cn2)NC(=O)[C@@H](CO)NC(=O)[C@@H](Cc2c[nH]cn2)NC(=O)[C@@H](NC(=O)COCCOCCOCCNC(=O)CCCC[C@@H]2SC[C@@H]3NC(=O)N[C@@H]32)Cc2cn(nn2)CCCC[C@@H](C(N)=O)NC(=O)[C@@H](C)NC1=O` [hshta] ({Biotin-AEEEA}-[Pra][dH][dS][dH][dT][dA][Lys(N3)]-NH2; triazole 1-7), the “binding selectivity for FOLR1 … (−) cells” value [1] is reported as “higher selectivity for FOLR1 than kyeet” and the “affinity for recombinant human FOLR protein in ELISA” value (FOLR1 [2]; tested alone) is reported as “low micromolar affinity”.

In the case of “Folate-hshta-G-F-K(^177Lu-DOTA)-OH [^177Lu-#7327]”, the “body weight loss after second dose” value (OVCAR3 xenograft [4]; 9.25 MBq and 14.8 MBq arms, second dose 21 days after first) is reported as “minimal”, the “tolerability of first dose” value (OVCAR3 xenograft [4]; 9.25 MBq, 14.8 MBq, and 29.6 MBq arms) is reported as “well tolerated” and the “tumor sizes after additional treatment on day 24” value (OVCAR3 xenograft [4]; 46.3, 74 and 148 MBq groups) is reported as “shrinking tumor sizes”. The tumor volumes (OVCAR3 xenograft [4]; 46.3 MBq group, elevated dose) was “stable tumor volumes”, the “decrease of tumor volumes, on average” value (OVCAR3 xenograft [4]; 74 MBq and 148 MBq arms, single elevated dose at 45 days post injection) was 50% and the body weight (OVCAR3 xenograft [4]; 74 MBq and 148 MBq, elevated dose) was “modest body weight loss”. The “time to statistically significant differential between treated and control” value (OVCAR3 xenograft [4]; 74 MBq arm) was 24 days post-injection, the “body weight after second dose” value (OVCAR3 xenograft [4]; highest dose (29.6 MBq)) was “modest loss of body weight that stabilized and then rebounded” and the tumor volume (OVCAR3 xenograft [4]; two doses at 74 MBq, 21 days apart, vs 0 MBq control) was “decrease in tumor volume”. The tumor volume (OVCAR3 xenograft [4]; two doses, arms of 9.25, 14.8, and 29.6 MBq) was “dose dependent decrease in tumor volume”, the tumor response (OVCAR3 xenograft [4]; two treatments at 29.6 MBq) was “tumor stasis” and the tumor response (OVCAR3 xenograft [4]; two treatments at 74 MBq) was “Tumor stasis”. For the same compound, the tolerability ([5]; doses of 111 MBq and 185 MBq) was “not tolerated”, the tolerability ([5]; doses of 111 MBq and 185 MBq, listed as Indi ^177Lu-7327) was “lost substantial body weight” and the tolerability ([5]; repeated doses of 14.8, 22.2, 29.6, and 37 MBq, 21 days apart) was “well tolerated”. For the same compound, the tolerated radioactive doses ([5]; three treatments, healthy non-tumor bearing female NSG mice) was “up to 111 MBq”, the caliper-measured tumor volume (OVCAR3 xenograft [6]; 29.6 MBq arm, following the second dose) was “stabilized and then fell” and the “time to statistically significant differential between treated and untreated” value (OVCAR3 xenograft [6]; 29.6 MBq arm, p≤0.05) was 12 days post injection. For the same compound, the “loss of body weight” value (OVCAR3 xenograft [6]; 29.6 MBq dose, two doses) was 5-10%, the “body weights of treated mice” value (OVCAR3 xenograft [6]; (+/−10%)) was “normal body weights” and the tumor response (OVCAR3 xenograft [6]; two treatments at 29.6 MBq followed by a third treatment at 74 MBq) was “Tumor regression”. For the same compound, the “outcompeting native folate for receptor binding” value (FOLR1 [7]) was “approximately 500 fold”.
